# Activity calls are given as the source filed them. No cut-off for these calls is given here.
# Experiments:
# Bombyx mori [1] = assay: Antijuvenile hormone activity in third-instar larvae of Bombyx mori assessed as induction of precocious metamorphosis at 40 ug/larvae topically applied to the dorsal abdomen; type: functional
# Bombyx mori [2] = assay: Antijuvenile hormone activity in third-instar larvae of Bombyx mori assessed as induction of precocious metamorphosis at 10 ug/larvae topically applied to the dorsal abdomen; type: functional
# Bombyx mori [3] = assay: Antijuvenile hormone activity in third-instar larvae of Bombyx mori assessed as induction of precocious metamorphosis at 1 ug/larvae topically applied to the dorsal abdomen; type: functional
# Bombyx mori [4] = assay: Juvenile hormone activity in allatectomized fourth-instar larvae of Bombyx mori assessed as number of larvae transformed into fifth instar larvae at 1 ug/larvae topically applied to the dorsal abdomen; type: functional, organism-based
# Bombyx mori [5] = assay: Juvenile hormone activity in allatectomized fourth-instar larvae of Bombyx mori assessed as number of larvae transformed into larval-pupal intermediate at 1 ug/larvae topically applied to the dorsal abdomen; type: functional, organism-based
# Bombyx mori [6] = assay: Juvenile hormone activity in allatectomized fourth-instar larvae of Bombyx mori assessed as number of larvae transformed into precocious pupa at 1 ug/larvae topically applied to the dorsal abdomen; type: functional, organism-based
# Bombyx mori [7] = assay: Juvenile hormone activity in allatectomized fourth-instar larvae of Bombyx mori assessed as number of larvae transformed into larval-pupal intermediate at 40 ug/larvae topically applied to the dorsal abdomen; type: functional, organism-based
# Bombyx mori [8] = assay: Juvenile hormone activity in allatectomized fourth-instar larvae of Bombyx mori assessed as number of larvae transformed into precocious pupa at 40 ug/larvae topically applied to the dorsal abdomen; type: functional, organism-based
# Bombyx mori [9] = assay: Juvenile hormone activity in allatectomized fourth-instar larvae of Bombyx mori assessed as number of larvae transformed into fifth instar larvae at 40 ug/larvae topically applied to the dorsal abdomen; type: functional, organism-based
compound,measurement,setting,value
CCOC(=O)c1ccc(OC[C@@H]2Cc3ccccc3N2Cc2ccccc2)cc1,Activity,Bombyx mori [1],28%
same,Activity,Bombyx mori [2],25%
same,Activity,Bombyx mori [3],5%
CCCn1c(COc2ccc(C(=O)OCC)cc2)cc2ccccc21,Activity,Bombyx mori [1],90%
same,Activity,Bombyx mori [2],95%
same,Activity,Bombyx mori [3],67%
COC(C)(C)CCC[C@H](C)C/C=C/C(C)=C/C(=O)OC(C)C,Activity,Bombyx mori [4],Active
same,Activity,Bombyx mori [5],inactive
same,Activity,Bombyx mori [6],inactive
CCOC(=O)c1ccc(OCc2cc3ccccc3n2Cc2ccccc2)cc1,Activity,Bombyx mori [1],84%
same,Activity,Bombyx mori [7],inactive
same,Activity,Bombyx mori [2],73%
same,Activity,Bombyx mori [3],73%
CCOC(=O)c1ccc(OCc2cc3ccccc3n2CC)cc1,Activity,Bombyx mori [1],5%
same,Activity,Bombyx mori [2],5%
same,Activity,Bombyx mori [3],5%
CCCCn1c(COc2ccc(C(=O)OCC)cc2)cc2ccccc21,Activity,Bombyx mori [8],inactive
same,Activity,Bombyx mori [1],94%
same,Activity,Bombyx mori [9],Active
same,Activity,Bombyx mori [7],inactive
same,Activity,Bombyx mori [2],93%
same,Activity,Bombyx mori [3],65%
CCCCN1c2ccccc2C[C@H]1COc1ccc(C(=O)OCC)cc1,Activity,Bombyx mori [8],Active
same,Activity,Bombyx mori [1],82%
same,Activity,Bombyx mori [9],inactive
same,Activity,Bombyx mori [7],inactive
same,Activity,Bombyx mori [2],65%
same,Activity,Bombyx mori [3],5%
CCCCC(COc1ccc(C(=O)OCC)cc1)Cc1ccccc1 (stereo unspecified),Activity,Bombyx mori [1],12%
same,Activity,Bombyx mori [2],34%
same,Activity,Bombyx mori [3],90%

# Reference: ChEMBL document CHEMBL3046331, “Ethyl 4-[(1-substituted indol-2-yl)methoxy]benzoates and indoline derivatives: Anti-juvenile hormone and juvenile hormone activities” (2009)
